# Test results as given in publication PMC9247258, “Synthesis and Biological Activity Evaluation of 2-Cyanopyrrole Derivatives as Potential Tyrosinase Inhibitors” (Frontiers in Chemistry, 2022).
# Columns and labels:
# mushroom tyrosinase [1] = target: T1, mushroom tyrosinase (Agaricus bisporus, UniProt C7FF04); assay: Mushroom tyrosinase inhibitory assay (L-DOPA as substrate); assay type: biochemical; parameters: purchased Sigma (St. Louis, MO, United States); conditions: for IC50: mushroom tyrosinase, L-DOPA substrate, absorbance 475 nm
# Protocol: The mushroom tyrosinase activity assays of synthetic compounds were carried out according to the previously reported modification ([Qin et al., 2015]). L-DOPA was used as the substrate. Briefly, 800 μl of phosphate buffer (50 mM, pH 6.8), 50 μl of mushroom tyrosinase (666.67 U/ml, dissolved in PBS), and 50 μl of inhibitor (dissolved in DMSO) were placed in the plastic centrifuge tube. Then, 100 μl of L-DOPA (5 mM, dissolved in PBS) was added. Subsequently, its change in absorbance at 475 nm was measured in a time-dependent manner using a Beckman UV-650 spectrophotometer. The percentage inhibition was calculated by using [(OD0 - OD1)/OD0] × 100%, where OD0 was the absorbance without inhibitor, and OD1 was the absorbance with the inhibitor. The IC50 value of the potential compound was calculated from dose-response curves of percentage inhibition. Kojic acid was used as a standard control for comparison. All experiments were performed in duplicate.
# Target sequence in this assay (C7FF04 1-392 limits assumed): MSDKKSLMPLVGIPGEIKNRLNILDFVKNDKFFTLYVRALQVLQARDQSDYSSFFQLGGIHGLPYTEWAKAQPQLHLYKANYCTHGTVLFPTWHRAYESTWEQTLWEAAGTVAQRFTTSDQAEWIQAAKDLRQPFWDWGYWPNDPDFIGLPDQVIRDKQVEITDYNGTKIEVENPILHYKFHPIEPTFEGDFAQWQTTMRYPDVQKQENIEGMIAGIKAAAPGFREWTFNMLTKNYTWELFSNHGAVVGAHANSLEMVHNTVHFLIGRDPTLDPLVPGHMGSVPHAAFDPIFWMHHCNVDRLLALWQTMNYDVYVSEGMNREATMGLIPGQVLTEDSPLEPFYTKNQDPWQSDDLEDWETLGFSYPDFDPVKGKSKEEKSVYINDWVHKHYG
# mushroom tyrosinase [2] = target: T1, mushroom tyrosinase; assay: Inhibition mechanism and kinetic analysis (v vs [E] plots, Lineweaver-Burk plot); assay type: biochemical
# Protocol: Experiments were performed to analyze the inhibitory mechanism by the following method. For the text, the mushroom tyrosinase at a final concentration of 16.67–100.00 U/ml and L-DOPA at a final concentration of 0.5 mM were chosen. Then, the mushroom tyrosinase activity was measured in the presence of the inhibitor.
# The inhibition type of the inhibitor on mushroom tyrosinase was evaluated by the Lineweaver–Burk plot, and the inhibition constants were obtained from the second plots of the apparent 1/Vmax and Km/Vmax against the inhibitor concentration. In this assay, mushroom tyrosinase at a final concentration of 33.33 U/ml and L-DOPA at a final concentration of 0.25–2 mM were used. The equation for the Lineweaver–Burk plot can be written as follows: 1/v−Km/Vm(1+[I]/KI)+1/Vm(1+[I]/KIS) where v is the reaction velocity, Km is the Michaelis constant, Vm is the maximal velocity, [I] is the concentration of the inhibitor, [S] is the concentration of the substrate, KI is the constant for the inhibitor binding with the free enzyme, and KIS is the constant for the inhibitor binding with the enzyme-substrate complex. KI and KIS were obtained from the slope or the vertical intercept vs. the inhibitor concentration, respectively.
# Target sequence in this assay (C7FF04 2-392): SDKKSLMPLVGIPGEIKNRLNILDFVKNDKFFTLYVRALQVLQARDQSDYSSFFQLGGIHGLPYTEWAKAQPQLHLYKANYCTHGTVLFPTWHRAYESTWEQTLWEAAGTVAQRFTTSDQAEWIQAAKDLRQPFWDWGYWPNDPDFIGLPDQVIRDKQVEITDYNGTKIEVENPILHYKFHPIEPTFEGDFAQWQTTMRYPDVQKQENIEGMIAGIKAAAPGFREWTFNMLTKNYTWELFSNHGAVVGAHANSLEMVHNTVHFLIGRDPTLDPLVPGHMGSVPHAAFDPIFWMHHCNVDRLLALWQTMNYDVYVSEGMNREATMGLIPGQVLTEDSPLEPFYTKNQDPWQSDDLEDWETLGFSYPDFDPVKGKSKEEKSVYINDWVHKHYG
# B16 melanoma cells = assay: MTT assay, cell cytotoxicity; assay type: cell-based, mouse; conditions: 24 h treatment, under a concentration of 100 μM
# Protocol: B16 mouse melanoma cells were cultured in Dulbecco’s modified Eagle’s medium (DMEM) containing 10% fetal bovine serum and 1% penicillin/streptomycin at 37°C in a 5% CO2 incubator. B16 cells (100 µl) were plated in a 96-well plate (5 × 10^3 cells/well) for 24 h and then treated with a 100 µl complete medium containing A12 or kojic acid for 24 h. MTT solution (0.5 mg/ml, final concentration) was added to each well, and plates were incubated at 37°C for another 3 h. The absorbance was measured at 490 nm using a multi-detection microplate reader.
# [3] = test system: tyrosinase in B16 melanoma cells; assay: Cellular tyrosinase activity; assay type: cell-based; conditions: Mus musculus, 48 h incubation
# Protocol: B16 mouse melanoma cells were cultured in Dulbecco’s modified Eagle’s medium (DMEM) containing 10% fetal bovine serum and 1% penicillin/streptomycin at 37°C in a 5% CO2 incubator. The inhibitory activity of A12 on tyrosinase in B16 cells was evaluated. B16 cells (5 × 10^4 cells/well) were plated in 96-well plates and incubated for 24 h. A measure of 100 µl of complete medium including A12 or kojic acid was added for further incubation of 48 h. Then, cells were added to 50 µl Triton X-100 (1%) and allowed for freezing for 1 h at −80°C. After thawing at room temperature, 10 μl L-DOPA solutions (0.1%, w/v) were added and co-incubated for 1 h at 37°C. The absorbance at 405 nm was measured.
IC50 (mushroom tyrosinase [1]),Compound,also measured
7.42 µM,Cn1ccc(-c2ccccc2)c1C#N [Compound A1],–
> 200 µM,"Cn1ccc(-c2ccccc2)c1CNC(=O)OC(C)(C)C [Compound B6, tert-Butyl ((1-methyl-3-phenyl-1H-pyrrol-2-yl)methyl)carbamate]",melting point: 87 to 90 °C
4.83 µM,Cn1ccc(-c2cccc(Cl)c2Cl)c1C#N [Compound A10],–
> 200 µM,"Cn1ccc(-c2cccc(F)c2)c1CNC(=O)OC(C)(C)C [Compound B4, tert-Butyl ((3-(3-fluorophenyl)-1-methyl-1H-pyrrol-2-yl)methyl)carbamate]",melting point: 103 to 104 °C
16.5 µM,Cn1ccc(-c2cccc(Br)c2)c1C#N [Compound A5],–
8.72 µM,Cn1ccc(-c2ccccc2F)c1C#N [Compound A2],–
4.46 µM,CCn1c(C)cc(-c2ccccc2)c1C#N [Compound A13],–
> 200 µM,"Cn1ccc(-c2ccc(Br)cc2)c1CNC(=O)OC(C)(C)C [Compound B3, tert-Butyl ((3-(4-bromophenyl)-1-methyl-1H-pyrrol-2-yl)methyl)carbamate]",melting point: 109 to 113 °C
87.3 µM,Cn1c(-c2ccccc2)cc(-c2ccc(Cl)cc2)c1C#N [Compound A15],–
> 200 µM,"Cn1ccc(-c2cccc(Br)c2)c1C(N)=O [Compound B1, 3-(3-Bromophenyl)-1-methyl-1H-pyrrole-2-carboxamide]",–
5.57 µM,N#Cc1c(-c2ccc(Cl)cc2)cc2n1Cc1ccccc1C2 [Compound A17],–
5.06 µM,N#Cc1c(-c2ccc(Cl)cc2)cc2n1CCCC2 [Compound A16],–
> 200 µM,"Cn1ccc(-c2ccc(C(F)(F)F)cc2)c1CNC(=O)OC(C)(C)C [Compound B7, tert-Butyl ((1-methyl-3-(4-(trifluoromethyl)phenyl)-1H-pyrrol-2-yl)methyl)carbamate]",melting point: 120 to 122 °C
21.4 µM,Cn1ccc(-c2cccc(F)c2)c1C#N [Compound A3],–
23.6 µM,COc1ccccc1-c1ccn(C)c1C#N [Compound A7],–
> 200 µM,"Cn1ccc(-c2ccccc2F)c1CNC(=O)OC(C)(C)C [Compound B8, tert-Butyl ((3-(2-fluorophenyl)-1-methyl-1H-pyrrol-2-yl)methyl)carbamate]",melting point: 81 to 84 °C
–,"O=c1cc(CO)occ1O [Kojic acid, reference compound]",cell cytotoxicity on B16 melanoma cells (B16 melanoma cells): no cytotoxicity; inhibition at 100 µM [3]: 39.8%
> 200 µM,"Cn1ccc(-c2cccc(Br)c2)c1CNC(=O)OC(C)(C)C [Compound B5, tert-Butyl ((3-(3-bromophenyl)-1-methyl-1H-pyrrol-2-yl)methyl)carbamate]",melting point: 124 to 127 °C
12.4 µM,Cn1ccc(-c2ccc(C(F)(F)F)cc2)c1C#N [Compound A9],–
89.2 µM,COc1ccc(-c2ccn(C)c2C#N)cc1 [Compound A8],–
8.17 µM,Cn1ccc(-c2ccc(Br)cc2)c1C#N [Compound A6],–
80.5 µM,N#Cc1c(-c2ccc(Cl)cc2)ccn1Cc1ccccc1 [Compound A14],–
8.47 µM,Cn1ccc(-c2ccccc2Br)c1C#N [Compound A4],–
2.11 µM,COc1ccc(Br)cc1-c1ccn(C)c1C#N [Compound A11],–
> 200 µM,"Cn1ccc(-c2ccc(Br)cc2)c1C(N)=O [Compound B2, 3-(4-Bromophenyl)-1-methyl-1H-pyrrole-2-carboxamide]",melting point: 172 to 174 °C

Compound,IC50 (mushroom tyrosinase [1]),also measured
C=Cc1ccccc1-c1ccn(C)c1C#N [Compound A12],0.97 µM,"inhibition type (mushroom tyrosinase [2]; Lineweaver-Burk double reciprocal plots, L-DOPA 0.25-2 mM, tyrosinase 33.33 U/ml): mixed-type; reversibility of tyrosinase inhibition (mushroom tyrosinase [2]; plots of initial velocity vs tyrosinase concentration, L-DOPA 0.5 mM): reversible; KIS, equilibrium constant for inhibitor binding with enzyme-substrate complex (mushroom tyrosinase [2]; second plot of apparent 1/Vmax vs inhibitor concentration): 1.00 µM; cell cytotoxicity on B16 melanoma cells (B16 melanoma cells): no cytotoxicity; inhibition at 100 µM [3]: 33.5%; times stronger than the reference inhibitor kojic acid (mushroom tyrosinase [1]; ratio of tyrosinase IC50 values, kojic acid vs compound): ~30 times"
